# Read-outs that look alike come from different tables or passages of the source.
# Experiments:
# [1] = biological target: T1, mT2R5 coupling to gustducin (Mus musculus, UniProt Q9JKT4); test: Tastant-induced GTPγS binding to gustducin with insect cell membranes containing rho-mT2R5; format: biochemical
# T1 construct: infectious Bacmid containing rhodopsin tagged mT2R5 (DBA/2-allele) was produced using the Bac-to-Bac system; rhodopsin tag (rho); made in house; host or cells: insect larval cells infected with recombinant Bacmid (Bac-to-Bac baculovirus system); membrane preparation
# T1 sequence (Q9JKT4 1-300): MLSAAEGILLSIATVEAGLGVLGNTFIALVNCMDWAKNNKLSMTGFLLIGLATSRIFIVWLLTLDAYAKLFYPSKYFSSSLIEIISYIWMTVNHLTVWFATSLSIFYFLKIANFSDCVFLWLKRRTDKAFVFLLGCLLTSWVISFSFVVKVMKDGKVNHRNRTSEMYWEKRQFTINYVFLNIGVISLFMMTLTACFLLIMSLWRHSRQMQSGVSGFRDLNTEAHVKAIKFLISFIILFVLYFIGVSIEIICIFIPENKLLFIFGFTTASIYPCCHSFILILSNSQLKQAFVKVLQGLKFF
# Experimental: To investigate the selectivity of T2R-G-protein coupling, mT2R5 was chosen for study because its activation by cycloheximide recapitulates mouse taste responses. Rho-tagged mT2R5 and gustducin were prepared using a baculovirus expression system. mT2R5-containing membranes were incubated with various purified G-proteins, including gustducin, and measured tastant-induced GTP-γS binding (Hoon et al., Biochem J 309:629-636 (1995)). Specifically, infectious Bacmid containing rhodopsin tagged mT2R5 (DBA/2-allele) was produced using the Bac-to-Bac system (Lifetechnologies, MD). Insect larval cells were infected for 60 h with recombinant Bacmid and membranes were prepared as described previously (Ryba and Tirindelli, J Biol Chem, 270:6757-6767 (1995)). Peripheral proteins were removed by treatment with 8 M urea and membranes were resuspended in 10 mM HEPES pH7.5, 1 mM EDTA and 1 mM DTT. The expression of rho-mT2R5 was assessed by Western blot using mAb B6-30 and quantitated by comparison with known amounts of rhodopsin. Approximately 300 pmol of rho-mT2R5 could be obtained from 2×10^8 infected cells. Gustducin and Gβ1γ8 heterodimers were isolated as described previously (Hoon et al., Biochem J 309:629-636 (1995); Ryba and Tirindelli, J Biol Chem, 270:6757-6767 (1995)). Receptor-catalyzed exchange of GDP for GTPγS on gustducin and other G-protein α-subunits was measured in the presence of 10 nM rho-mT2R5, 100 μM GDP, and 20 μM Gβ1γ8. All measurements were made at 15-minute time points, and reflect the initial rate of GTPγS binding.
# [2] = tested on: Cyx taster and non-taster mouse strains; conditions: cited from earlier work; for taste behaviour: non-taster strains
# mT2R5 = biological target: T2, mT2R5 (Mus musculus, UniProt Q9JKT4); test: FURA-2 [Ca2+]i imaging in HEK-293 cells expressing Gα15 and rho-mT2R5 (taster, DBA/2 allele); format: cell-based; conditions: for [Ca2+]i response (FURA-2): 1.5 μM cycloheximide
# T2 construct: expressed in transfected cells; host or cells: modified HEK-293 cells (PEAKrapid) expressing Gα15; pEAK10 vector
# T2 sequence (Q9JKT4 1-300): T1 sequence (Q9JKT4 1-300)
# Source text: In this system, receptor activation leads to increases in intracellular calcium [Ca2+]i, which can be monitored at the single cell level using the FURA-2 calcium-indicator dye (Tsien et al., Cell Calcium 6:145-157 (1985)). To test and optimize Gα15 coupling, two different GPCRs, a Gαi-coupled μ-opioid receptor (Reisine, Neuropharm. 34:463-472 (1995)) and a Gαq-coupled mGluR1 receptor (Masu et al., Nature 349:760-765 (1991)), were used. Transfection of these receptors into HEK-293 cell produced robust, agonist-selective, and Gα15-dependent Ca^2+ responses (FIG. 1).
# A number of studies have shown that many GPCRs, in particular sensory receptors, require specific “chaperones” for maturation and targeting through the secretory pathway (Baker et al., Embo J 13:4886-4895 (1994); Dwyer et al., Cell 93:455-466 (1998)). Recently, Krautwurst et al. (Cell 95:917-926 (1998)) generated chimeric receptors consisting of the first 20 amino acids of rhodopsin and various rodent olfactory receptors. These were targeted to the plasma membrane and functioned as odorant receptors in HEK-293 cells. To determine whether rhodopsin sequences can also help target T2Rs to the plasma membra, rhodopsin-T2R chimeras (rho-T2Rs) were constructed. […] Similar results were obtained with 11 human and 16 rodent T2Rs (see below). To further enhance the level of T2R expression, rho-T2Rs were placed under the control of a strong EF-1α promoter, and introduced as episomal plasmids into modified HEK-293 cells expressing Gα15 (pEAKrapid cells).
# A bridge overlap PCR extension technique was used to generate rho-T2R chimeras, which contain the first 39 amino acids of bovine rhodopsin in frame with human and rodent T2R coding sequences (Mehta and Singh, Biotechniques 26:1082-1086 (1999). All receptors were cloned into a pEAK10 mammalian expression vector (Edge Biosystems, MD). Modified HEK-293 cells (PEAK^rapid cells; Edge BioSystems, MD) were grown and maintained at 37° C. in UltraCulture medium (Bio Whittaker) supplemented with 5% fetal bovine serum, 100 μg/ml Gentamycin sulphate (Fisher), 1 μg/ml Amphotericin B and 2 mM GlutaMax I (Lifetechnologies). For transfection, cells were seeded onto matrigel coated 24-well culture plates or 35 mm recording chambers. After 24 h at 37° C., cells were washed in OptiMEM medium (Lifetechnologies) and transfected using LipofectAMINE reagent (Lifetechnologies). Transfection efficiencies were estimated by co-transfection of a GFP reporter plasmid, and were typically >70%. Immunofluoresence staining, and activity assays were performed 36-48 h after transfection.
# Transfected cells were washed once in Hank's balanced salt solution with 1 mM sodium pyruvate and 10 mM HEPES, pH 7.4 (assay buffer), and loaded with 2 μM FURA-2 AM (Molecular Probes) for 1 h at room temperature. The loading solution was removed and cells were incubated in 200 μl of assay buffer for 1 h to allow the cleavage of the AM ester. For most experiments, 24-well tissue culture plates containing cells expressing a single rho-T2R were stimulated with 200 μl of a 2× tastant solution (see next section). [Ca^2+]i changes were monitored using a Nikon Diaphot 200 microscope equipped with a 10×/0.5 fluor objective with the TILL imaging system (T.I.L.L Photonics GmbH). Acquisition and analysis of the fluorescence images used TILL-Vision software. Generally, [Ca^2+]i was measured for 80-120 s by sequentially illuminating cells for 200 ms at 340 nm and 380 nm and monitoring the fluorescence emission at 510 nm using a cooled CCD camera. The F340/F380 ratio was analyzed to measure [Ca^2+]i.
# Kinetics of activation and deactivation were measured using a bath perfusion system. Cells were seeded onto a 150 μl microperfusion chamber, and test solutions were pressure-ejected with a picospritzer apparatus (General Valve, Inc.). Flow-rate was adjusted to ensure complete exchange of the bath solution within 4-5 s. […]
compound,measurement,setting,value
C[C@@H]1C[C@@H]([C@H](O)CC2CC(=O)NC(=O)C2)C(=O)[C@@H](C)C1 [cycloheximide],Kd,[1],14.8 µM
same,coupling of mT2R5 to gustducin,[1],exquisite cycloheximide-dependent coupling
same,gustducin activation,[1]; 300 μM,activate gustducin
same,avoidance threshold,[2]; Cyx taster strains,0.25
same,taste behaviour,[2]; at 8 μM,strongly avoid
same,taste behaviour,[2]; at 1,non-tasters
same,decrease in sensitivity,[2]; non-tasters vs taster strains,~8 fold
same,sensitivity threshold,[2]; rodents,~0.25 µM
same,EC50,mT2R5,0.5 µM
same,response of cells expressing mT2R5,mT2R5,specifically responded
same,response to successive applications,mT2R5,significantly reduced responses
same,threshold of response,mT2R5,~0.2 µM
same,[Ca2+]i response (FURA-2),mT2R5; absence of Gα15,No increase in [Ca2+]i
same,[Ca2+]i response (FURA-2),mT2R5; with Gα15,robust Gα15 dependent responses
same,specificity of [Ca2+]i response,mT2R5; 5 μM,highly specific
same,[Ca2+]i changes in cells lacking receptor or Gα15,mT2R5; 5000-fold higher concentration,did not trigger [Ca2+]i changes
same,cells responding,mT2R5; entire camera field,> 70%
same,response to prolonged exposure,mT2R5; exposure >10 s,adaptation
same,response under superfusion,mT2R5; micromolar concentrations,robust transient responses
same,latency of response,mT2R5; microperfusion chamber,< 1 s
same,receptor activation by tastant pulses,mT2R5; multiple pulses of 2 μM,robust receptor activation
CC[N+](CC)(CC(=O)Nc1c(C)cccc1C)Cc1ccccc1 [denatonium],gustducin activation,[1]; 1 mM,not
same,[Ca2+]i response to tastant,mT2R5; 5 mM,not observed
